{"source": "patent US20230074545A1", "about": "“TREATMENT OF CANCER WITH CDK12/13 INHIBITORS” (Kinnate Biopharma Inc., priority 2019, published 2023)", "experiment_in_all_cases": "Radiometric kinase panel", "assay_type_in_all_cases": "biochemical", "key": {"[1]": {"target": "T1, CK2alpha1 (Homo sapiens, UniProt P68400)", "T1 construct": "either as full-length or enzymatically active fragments; purchased ProQinase GmbH (Reaction Biology)", "procedure,_shortened": "(§1)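 Activity was measured radiometrically from [gamma-33P]-ATP incorporation into substrate. The kinases were recombinant human GST- or His-tagged proteins, full-length or active fragments, expressed in Sf9 or E. coli. Compound in 10% DMSO was added before the enzyme/substrate mix, which started the reaction.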"}, "[2]": {"target": "T2, ACVR1 (Homo sapiens, UniProt Q04771)", "T2 construct": "purchased ProQinase GmbH (Reaction Biology)", "procedure,_shortened": "as §1"}, "[3]": {"target": "T3, PKCgamma (Homo sapiens, UniProt P05129)", "T3 construct": "either as full-length or enzymatically active fragments; purchased ProQinase GmbH (Reaction Biology)", "procedure,_shortened": "as §1"}, "[4]": {"target": "T4, FAK (Homo sapiens, UniProt Q05397)", "T4 construct": "either as full-length or enzymatically active fragments; purchased ProQinase GmbH (Reaction Biology); host or cells: Sf9 insect cells or E. coli", "procedure,_shortened": "as §1"}, "[5]": {"target": "T5, CK1gamma3 (Homo sapiens, UniProt Q9Y6M4)", "T5 construct": "either as full-length or enzymatically active fragments; purchased ProQinase GmbH (Reaction Biology)", "procedure,_shortened": "as §1"}, "[6]": {"target": "T6, ROCK1 (Homo sapiens, UniProt Q13464)", "T6 construct": "either as full-length or enzymatically active fragments; purchased ProQinase GmbH (Reaction Biology)", "procedure,_shortened": "as §1"}, "[7]": {"target": "T7, SIK1 (Homo sapiens, UniProt P57059)", "T7 construct": "either as full-length or enzymatically active fragments; purchased ProQinase GmbH (Reaction Biology)", "procedure,_shortened": "as §1"}, "[8]": {"target": "T8, NEK6 (Homo sapiens, UniProt Q9HC98)", "T8 construct": "either as full-length or enzymatically active fragments; purchased ProQinase GmbH (Reaction Biology)", "procedure,_shortened": "as §1"}, "[9]": {"target": "T9, LCK (Homo sapiens, UniProt P06239)", "T9 construct": "either as full-length or enzymatically active fragments; purchased ProQinase GmbH (Reaction Biology)", "procedure,_shortened": "as §1"}, "[10]": {"target": "T10, KIT (Homo sapiens, UniProt P10721)", "T10 construct": "either as full-length or enzymatically active fragments; purchased ProQinase GmbH (Reaction Biology)", "procedure,_shortened": "as §1"}, "[11]": {"target": "T11, VRK2 (Homo sapiens, UniProt Q86Y07)", "T11 construct": "either as full-length or enzymatically active fragments; purchased ProQinase GmbH (Reaction Biology); host or cells: Sf9 insect cells or E. coli", "procedure,_shortened": "as §1"}, "[12]": {"target": "T12, NEK2 (Homo sapiens, UniProt P51955)", "T12 construct": "either as full-length or enzymatically active fragments; purchased ProQinase GmbH (Reaction Biology)", "procedure,_shortened": "as §1"}, "[13]": {"target": "T13, EPHA1 (Homo sapiens, UniProt P21709)", "T13 construct": "either as full-length or enzymatically active fragments; purchased ProQinase GmbH (Reaction Biology)", "procedure,_shortened": "as §1"}, "[14]": {"target": "T14, MYLK3 (Homo sapiens, UniProt Q32MK0)", "T14 construct": "either as full-length or enzymatically active fragments; purchased ProQinase GmbH (Reaction Biology)", "T14 sequence (Q32MK0 whole entry, the tested form may be a part)": "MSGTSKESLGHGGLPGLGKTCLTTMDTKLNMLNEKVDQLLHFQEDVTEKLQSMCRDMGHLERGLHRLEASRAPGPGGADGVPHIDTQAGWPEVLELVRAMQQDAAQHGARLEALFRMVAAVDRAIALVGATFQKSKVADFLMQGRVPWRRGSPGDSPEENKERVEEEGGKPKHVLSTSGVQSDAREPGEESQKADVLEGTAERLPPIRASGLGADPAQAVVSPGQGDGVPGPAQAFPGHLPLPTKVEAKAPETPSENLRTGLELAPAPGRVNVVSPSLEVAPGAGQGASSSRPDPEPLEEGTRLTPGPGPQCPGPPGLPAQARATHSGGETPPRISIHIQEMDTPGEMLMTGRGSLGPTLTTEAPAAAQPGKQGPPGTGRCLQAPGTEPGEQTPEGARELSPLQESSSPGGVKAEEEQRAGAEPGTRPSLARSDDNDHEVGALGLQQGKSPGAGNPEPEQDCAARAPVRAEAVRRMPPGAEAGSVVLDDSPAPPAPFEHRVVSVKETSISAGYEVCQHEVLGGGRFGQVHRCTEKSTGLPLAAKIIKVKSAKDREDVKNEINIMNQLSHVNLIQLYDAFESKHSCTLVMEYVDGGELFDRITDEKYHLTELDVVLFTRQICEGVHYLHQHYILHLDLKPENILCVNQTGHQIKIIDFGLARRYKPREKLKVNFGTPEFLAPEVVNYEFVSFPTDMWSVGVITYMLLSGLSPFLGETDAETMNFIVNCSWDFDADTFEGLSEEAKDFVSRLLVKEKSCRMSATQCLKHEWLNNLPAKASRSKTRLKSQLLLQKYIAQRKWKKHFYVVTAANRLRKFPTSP", "procedure,_shortened": "as §1"}, "[15]": {"target": "T15, MLK4 (Homo sapiens, UniProt Q5TCX8)", "T15 construct": "either as full-length or enzymatically active fragments; purchased ProQinase GmbH (Reaction Biology); host or cells: Sf9 insect cells or E. coli (not specified per kinase)", "T15 sequence (Q5TCX8 whole entry, the tested form may be a part)": "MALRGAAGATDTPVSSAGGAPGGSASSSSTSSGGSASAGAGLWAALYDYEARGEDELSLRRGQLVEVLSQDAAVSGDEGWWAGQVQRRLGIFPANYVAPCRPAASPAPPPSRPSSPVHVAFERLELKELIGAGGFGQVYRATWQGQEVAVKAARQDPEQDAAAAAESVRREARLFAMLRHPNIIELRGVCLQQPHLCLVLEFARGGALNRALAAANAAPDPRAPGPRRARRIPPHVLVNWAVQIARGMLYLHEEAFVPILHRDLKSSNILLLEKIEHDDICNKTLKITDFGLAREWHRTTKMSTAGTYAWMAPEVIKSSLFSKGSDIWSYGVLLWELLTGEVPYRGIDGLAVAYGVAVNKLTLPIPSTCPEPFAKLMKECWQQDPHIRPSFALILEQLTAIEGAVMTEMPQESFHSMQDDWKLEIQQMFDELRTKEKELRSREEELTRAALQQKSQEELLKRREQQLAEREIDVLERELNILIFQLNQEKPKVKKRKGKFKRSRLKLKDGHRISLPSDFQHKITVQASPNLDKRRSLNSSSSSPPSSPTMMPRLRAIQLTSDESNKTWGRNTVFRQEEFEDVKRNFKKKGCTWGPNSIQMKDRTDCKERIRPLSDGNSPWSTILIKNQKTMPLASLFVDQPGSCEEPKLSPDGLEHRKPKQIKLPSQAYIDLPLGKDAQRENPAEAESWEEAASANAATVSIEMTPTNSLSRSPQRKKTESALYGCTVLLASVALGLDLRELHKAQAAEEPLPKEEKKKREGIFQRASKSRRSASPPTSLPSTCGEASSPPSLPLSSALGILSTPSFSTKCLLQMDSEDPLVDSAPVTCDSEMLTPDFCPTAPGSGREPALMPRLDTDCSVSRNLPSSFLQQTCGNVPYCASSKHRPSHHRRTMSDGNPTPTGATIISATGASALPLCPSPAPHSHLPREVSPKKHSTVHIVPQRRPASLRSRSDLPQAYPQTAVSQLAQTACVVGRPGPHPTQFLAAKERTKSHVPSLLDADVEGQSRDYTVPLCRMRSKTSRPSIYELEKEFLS", "procedure,_shortened": "as §1"}, "[16]": {"target": "T16, CDK7/CycH/MAT1 (Homo sapiens, UniProt P50613)", "T16 construct": "either as full-length or enzymatically active fragments; purchased ProQinase GmbH (Reaction Biology)", "T16 sequence (P50613 whole entry, the tested form may be a part)": "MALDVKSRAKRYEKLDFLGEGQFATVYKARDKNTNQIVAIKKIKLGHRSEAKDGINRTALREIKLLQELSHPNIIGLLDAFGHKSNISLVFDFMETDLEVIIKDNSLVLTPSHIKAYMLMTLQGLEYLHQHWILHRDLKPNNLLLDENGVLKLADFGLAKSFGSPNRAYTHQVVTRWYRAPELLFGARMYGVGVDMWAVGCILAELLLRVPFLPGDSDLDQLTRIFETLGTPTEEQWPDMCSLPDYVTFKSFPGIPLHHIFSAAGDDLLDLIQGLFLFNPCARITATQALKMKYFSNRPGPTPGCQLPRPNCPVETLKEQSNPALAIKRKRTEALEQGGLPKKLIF", "T16 sequence (P51946 whole entry partner, the tested form may be a part)": "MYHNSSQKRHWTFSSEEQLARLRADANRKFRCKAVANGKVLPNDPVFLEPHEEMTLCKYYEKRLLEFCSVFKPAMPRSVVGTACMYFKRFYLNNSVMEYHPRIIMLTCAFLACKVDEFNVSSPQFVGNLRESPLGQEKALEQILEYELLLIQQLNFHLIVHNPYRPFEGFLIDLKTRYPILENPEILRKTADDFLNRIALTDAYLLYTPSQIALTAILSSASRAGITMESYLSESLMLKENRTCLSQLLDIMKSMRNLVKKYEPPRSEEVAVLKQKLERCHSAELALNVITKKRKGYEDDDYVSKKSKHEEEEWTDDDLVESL", "T16 sequence (P51948 whole entry partner, the tested form may be a part)": "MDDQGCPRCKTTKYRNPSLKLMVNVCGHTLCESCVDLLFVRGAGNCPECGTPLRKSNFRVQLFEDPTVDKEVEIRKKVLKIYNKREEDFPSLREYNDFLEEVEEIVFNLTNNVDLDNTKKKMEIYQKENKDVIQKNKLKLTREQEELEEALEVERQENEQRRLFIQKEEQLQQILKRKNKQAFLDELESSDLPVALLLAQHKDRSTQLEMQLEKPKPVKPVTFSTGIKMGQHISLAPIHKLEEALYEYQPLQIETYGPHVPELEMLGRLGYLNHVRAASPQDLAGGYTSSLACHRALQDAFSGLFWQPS", "procedure,_shortened": "as §1"}, "[17]": {"target": "T17, PKCeta (Homo sapiens, UniProt P24723)", "T17 construct": "either as full-length or enzymatically active fragments; purchased ProQinase GmbH (Reaction Biology); host or cells: Sf9 insect cells or E. coli", "procedure,_shortened": "as §1"}, "[18]": {"target": "T18, PKN3 (Homo sapiens, UniProt Q6P5Z2)", "T18 construct": "purchased ProQinase GmbH (Reaction Biology)", "procedure,_shortened": "as §1"}, "[19]": {"target": "T19, BLK (Homo sapiens, UniProt P51451)", "T19 construct": "purchased ProQinase GmbH (Reaction Biology)", "procedure,_shortened": "as §1"}, "[20]": {"target": "T20, RIPK4 (Homo sapiens, UniProt P57078)", "T20 construct": "either as full-length or enzymatically active fragments; purchased ProQinase GmbH (Reaction Biology)", "procedure,_shortened": "as §1"}, "[21]": {"target": "T21, DYRK1A (Homo sapiens, UniProt Q13627)", "T21 construct": "either as full-length or enzymatically active fragments; purchased ProQinase GmbH (Reaction Biology)", "procedure,_shortened": "as §1"}, "[22]": {"target": "T22, BMPR1B (Homo sapiens, UniProt O00238)", "T22 construct": "either as full-length or enzymatically active fragments; purchased ProQinase GmbH (Reaction Biology)", "T22 sequence (O00238 14-502)": "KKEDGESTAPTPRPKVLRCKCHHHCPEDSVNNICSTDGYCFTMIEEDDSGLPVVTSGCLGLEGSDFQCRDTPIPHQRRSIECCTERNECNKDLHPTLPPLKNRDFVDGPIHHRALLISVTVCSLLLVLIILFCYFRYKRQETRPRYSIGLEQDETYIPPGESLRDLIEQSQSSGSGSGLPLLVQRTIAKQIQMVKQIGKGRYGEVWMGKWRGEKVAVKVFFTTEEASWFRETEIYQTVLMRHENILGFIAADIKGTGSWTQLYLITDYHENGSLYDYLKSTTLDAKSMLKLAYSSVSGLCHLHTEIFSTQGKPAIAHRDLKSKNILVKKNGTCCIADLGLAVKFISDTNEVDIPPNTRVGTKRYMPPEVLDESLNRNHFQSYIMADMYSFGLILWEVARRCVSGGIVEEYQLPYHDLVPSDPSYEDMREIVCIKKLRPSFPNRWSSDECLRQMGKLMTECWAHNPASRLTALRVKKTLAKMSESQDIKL", "procedure,_shortened": "as §1"}, "[23]": {"target": "T23, TTK (Homo sapiens, UniProt P33981)", "T23 construct": "either as full-length or enzymatically active fragments; purchased ProQinase GmbH (Reaction Biology); host or cells: Sf9 insect cells or E. coli", "procedure,_shortened": "as §1"}, "[24]": {"target": "T24, CDK12/CycK (Homo sapiens, UniProt Q9NYV4)", "T24 construct": "either as full-length or enzymatically active fragments; purchased ProQinase GmbH (Reaction Biology)", "procedure,_shortened": "as §1"}, "[25]": {"target": "T25, FGFR1 (Homo sapiens, UniProt P11362)", "T25 construct": "either as full-length or enzymatically active fragments; purchased ProQinase GmbH (Reaction Biology)", "T25 sequence (P11362 22-822)": "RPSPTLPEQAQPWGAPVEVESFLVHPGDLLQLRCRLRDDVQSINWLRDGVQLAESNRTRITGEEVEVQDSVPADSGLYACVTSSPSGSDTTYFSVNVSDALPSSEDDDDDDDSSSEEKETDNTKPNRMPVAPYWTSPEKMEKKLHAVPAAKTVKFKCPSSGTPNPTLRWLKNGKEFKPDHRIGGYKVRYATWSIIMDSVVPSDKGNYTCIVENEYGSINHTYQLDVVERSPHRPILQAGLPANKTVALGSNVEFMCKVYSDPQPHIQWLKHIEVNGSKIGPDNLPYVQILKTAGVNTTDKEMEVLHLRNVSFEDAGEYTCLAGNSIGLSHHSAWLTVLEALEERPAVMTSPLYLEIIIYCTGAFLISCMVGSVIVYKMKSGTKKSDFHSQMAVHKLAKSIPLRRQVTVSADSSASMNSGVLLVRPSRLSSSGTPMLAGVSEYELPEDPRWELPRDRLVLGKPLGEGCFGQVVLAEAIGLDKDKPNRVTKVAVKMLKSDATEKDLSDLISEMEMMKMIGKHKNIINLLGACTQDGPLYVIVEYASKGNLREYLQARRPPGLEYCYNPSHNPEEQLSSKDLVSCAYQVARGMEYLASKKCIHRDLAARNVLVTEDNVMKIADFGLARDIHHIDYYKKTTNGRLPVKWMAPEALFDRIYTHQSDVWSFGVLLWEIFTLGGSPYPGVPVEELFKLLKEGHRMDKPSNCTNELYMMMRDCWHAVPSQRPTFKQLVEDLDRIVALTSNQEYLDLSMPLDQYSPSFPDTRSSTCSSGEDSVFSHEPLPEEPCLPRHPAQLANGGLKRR", "procedure,_shortened": "as §1"}, "[26]": {"target": "T26, PBK (Homo sapiens, UniProt Q96KB5)", "T26 construct": "purchased ProQinase GmbH (Reaction Biology); host or cells: Sf9 insect cells or E. coli (not specified per kinase)", "procedure,_shortened": "as §1"}, "[27]": {"target": "T27, PKCepsilon (Homo sapiens, UniProt Q02156)", "T27 construct": "either as full-length or enzymatically active fragments; purchased ProQinase GmbH (Reaction Biology); host or cells: Sf9 insect cells or E. coli", "procedure,_shortened": "as §1"}, "[28]": {"target": "T28, CK1epsilon (Homo sapiens, UniProt P49674)", "T28 construct": "either as full-length or enzymatically active fragments; purchased ProQinase GmbH (Reaction Biology)", "procedure,_shortened": "as §1"}, "[29]": {"target": "T29, TRKA (Homo sapiens, UniProt P04629)", "T29 construct": "either as full-length or enzymatically active fragments; purchased ProQinase GmbH (Reaction Biology)", "procedure,_shortened": "as §1"}, "[30]": {"target": "T30, TNK1 (Homo sapiens, UniProt Q13470)", "T30 construct": "either as full-length or enzymatically active fragments; purchased ProQinase GmbH (Reaction Biology)", "T30 sequence (Q13470 whole entry, the tested form may be a part)": "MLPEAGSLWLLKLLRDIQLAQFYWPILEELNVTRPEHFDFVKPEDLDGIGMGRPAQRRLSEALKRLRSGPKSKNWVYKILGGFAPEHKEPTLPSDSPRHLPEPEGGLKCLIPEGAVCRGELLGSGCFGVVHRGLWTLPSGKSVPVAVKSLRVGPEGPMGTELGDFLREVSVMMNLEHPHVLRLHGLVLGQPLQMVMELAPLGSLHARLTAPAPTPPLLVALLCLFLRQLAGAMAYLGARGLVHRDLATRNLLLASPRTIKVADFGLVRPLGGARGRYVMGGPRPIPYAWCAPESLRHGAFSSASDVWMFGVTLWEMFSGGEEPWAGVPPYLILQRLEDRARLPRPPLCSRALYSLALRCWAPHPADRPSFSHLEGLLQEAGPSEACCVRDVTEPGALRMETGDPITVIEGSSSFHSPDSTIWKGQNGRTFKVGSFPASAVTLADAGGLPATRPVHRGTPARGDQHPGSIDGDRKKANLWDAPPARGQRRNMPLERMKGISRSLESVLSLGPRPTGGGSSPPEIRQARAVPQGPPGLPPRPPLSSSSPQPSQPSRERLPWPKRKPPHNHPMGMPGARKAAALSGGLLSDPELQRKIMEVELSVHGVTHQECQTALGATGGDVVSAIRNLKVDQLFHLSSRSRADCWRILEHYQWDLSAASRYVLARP", "procedure,_shortened": "as §1"}, "[31]": {"target": "T31, EGFR (Homo sapiens, UniProt P00533)", "T31 construct": "either as full-length or enzymatically active fragments; purchased ProQinase GmbH (Reaction Biology)", "procedure,_shortened": "as §1"}}, "data": [{"smiles": "C=CC(=O)Nc1ccc(C(=O)N2CC[C@@H](Nc3ncc(C#N)cn3)C2)cc1", "note": "[Compound 4, (R)-N-(4-(3-((5-cyanopyrimidin-2-yl)amino)pyrrolidine-1-carbonyl)phenyl)acrylamide]", "values": [{"measurement": "inhibition at 1 µM", "setting": "[1]", "value": -4, "unit": "%"}, {"measurement": "inhibition at 1 µM", "setting": "[2]", "value": -1, "unit": "%"}, {"measurement": "inhibition at 1 µM", "setting": "[3]", "value": -9, "unit": "%"}, {"measurement": "inhibition at 1 µM", "setting": "[4]", "value": -15, "unit": "%"}, {"measurement": "inhibition at 1 µM", "setting": "[5]", "value": -8, "unit": "%"}, {"measurement": "inhibition at 1 µM", "setting": "[6]", "value": 15, "unit": "%"}, {"measurement": "inhibition at 1 µM", "setting": "[7]", "value": 7, "unit": "%"}, {"measurement": "inhibition at 1 µM", "setting": "[8]", "value": 4, "unit": "%"}, {"measurement": "inhibition at 1 µM", "setting": "[9]", "value": -3, "unit": "%"}, {"measurement": "inhibition at 1 µM", "setting": "[10]", "value": -4, "unit": "%"}, {"measurement": "inhibition at 1 µM", "setting": "[11]", "value": -16, "unit": "%"}, {"measurement": "inhibition at 1 µM", "setting": "[12]", "value": -8, "unit": "%"}, {"measurement": "inhibition at 1 µM", "setting": "[13]", "value": 3, "unit": "%"}, {"measurement": "inhibition at 1 µM", "setting": "[14]", "value": 4, "unit": "%"}, {"measurement": "inhibition at 1 µM", "setting": "[15]", "value": 9, "unit": "%"}, {"measurement": "inhibition at 1 µM", "setting": "[16]", "value": 33, "unit": "%"}, {"measurement": "inhibition at 1 µM", "setting": "[17]", "value": -14, "unit": "%"}, {"measurement": "inhibition at 1 µM", "setting": "[18]", "value": -2, "unit": "%"}, {"measurement": "inhibition at 1 µM", "setting": "[19]", "value": -2, "unit": "%"}, {"measurement": "inhibition at 1 µM", "setting": "[20]", "value": -3, "unit": "%"}, {"measurement": "inhibition at 1 µM", "setting": "[21]", "value": 7, "unit": "%"}, {"measurement": "inhibition at 1 µM", "setting": "[22]", "value": 6, "unit": "%"}, {"measurement": "inhibition at 1 µM", "setting": "[23]", "value": 12, "unit": "%"}, {"measurement": "inhibition at 1 µM", "setting": "[24]", "value": 90, "unit": "%"}, {"measurement": "inhibition at 1 µM", "setting": "[25]", "value": 3, "unit": "%"}, {"measurement": "inhibition at 1 µM", "setting": "[26]", "value": 0, "unit": "%"}, {"measurement": "inhibition at 1 µM", "setting": "[27]", "value": 15, "unit": "%"}, {"measurement": "inhibition at 1 µM", "setting": "[28]", "value": -13, "unit": "%"}, {"measurement": "inhibition at 1 µM", "setting": "[29]", "value": -7, "unit": "%"}, {"measurement": "inhibition at 1 µM", "setting": "[30]", "value": 2, "unit": "%"}, {"measurement": "inhibition at 1 µM", "setting": "[31]", "value": 7, "unit": "%"}]}]}
